{"source": "paper PMC5274652", "about": "“Antagonizing Retinoic Acid Receptors Increases Myeloid Cell Production by Cultured Human Hematopoietic Stem Cells” (Archivum Immunologiae et Therapiae Experimentalis, 2016)", "molecules": {"B1": {"name": "granulocyte-colony stimulating factor (protein, UniProt P09919 31-207, looked up)", "Granulocyte …": "TPLGPASSLPQSFLLKCLEQVRKIQGDGAALQEKLVSECATYKLCHPEELVLLGHSLGIPWAPLSSCPSQALQLAGCLSQLHSGLFLYQGLLQALEGISPELGPTLDTLQLDVADFATTIWQQMEELGMAPALQPTQGAMPAFASAFQRRAGGVLVASHLQSFLEVSYRVLRHLAQP", "notes": "growth factor added at 30 ng/ml as benchmark for optimal generation of myeloid cells"}}, "key": {"[1]": {"test_system": "NB-4 cells", "experiment": "Differentiation of NB-4 cells (CD11b/CD14 flow cytometry)", "assay_type": "cell-based, human", "settings": "96 h", "method": "(§1) NB-4 and KG1 cells were obtained from the German Resource Center for Biological Material (DSMZ GmbH, Braunschweig, Germany). The cells were grown in RPMI-1640 medium supplemented with 10 % fetal bovine serum (FBS), 100 U/ml penicillin, and 100 µg/ml streptomycin (Sigma, St Louis, MO, USA). Cells were grown at 37 °C in 5 % CO2.\n(§2) The expression of differentiation markers at the cell surface was determined by flow cytometry. Differentiation of NB-4 and KG1 cells was measured by staining using the monoclonal antibodies CD11b-FITC and CD14-PE and appropriately labeled isotype controls (all from ImmunoTools, Friesoythe, Germany). Differentiation of human CD34^+ve cells was measured by triple-color staining using various cocktails of phycoerythrin-, fluorescein isothyocyanate-, and PerCP-monoclonal antibodies (from Becton–Dickinson, San Jose, CA, USA). The markers used to identify cell populations were as follows: CD45^+ve leukocytes; CD34^+ve/CD133^+ve HSCs; CD33^+ve/CD13^+ve immature myeloid; CD117^+ve myeloblasts and promyelocytes; CD11b^+ve/CD15^+ve mature myeloid; CD11b^+ve/CD65^+ve neutrophils; CD11b^+ve/CD14^+ve monocytes; glycophorin^+ve A erythroid cells; CD61^+ve megakaryoblasts and platelets; CD2^+ve/CD5^+ve/CD7^+ve T cells and NK cells; CD56^+ve NK cells; CD19^+ve/CD20^+ve B cells; and CD10^+ve B lymphocyte progenitors; and present on mature neutrophils and DR^+ve progenitors and present on mature monocytes. The cells were stained with 1 µl of the fluorescently labeled antibody (or the appropriate control immunoglobulin) for 1 h on ice. Next, they were washed with ice-cold phosphate-buffered saline (PBS) and suspended in 0.5 ml PBS supplemented with 0.1 % bovine serum albumin (Sigma, St Louis, MO, USA) prior to analysis on FACS Calibur flow cytometer (Becton–Dickinson, San Jose, CA, USA). The acquisition parameters were set for an isotype control. Cells were analyzed using a FACSCalibur, and data analysis was performed using the CellQuest Pro software (Becton–Dickinson, San Jose, CA, USA)."}, "[2]": {"molecular_target": "T1, human RARβ (Homo sapiens, UniProt P10826)", "T1 construct": "made in house", "T1 sequence (P10826 1-455)": "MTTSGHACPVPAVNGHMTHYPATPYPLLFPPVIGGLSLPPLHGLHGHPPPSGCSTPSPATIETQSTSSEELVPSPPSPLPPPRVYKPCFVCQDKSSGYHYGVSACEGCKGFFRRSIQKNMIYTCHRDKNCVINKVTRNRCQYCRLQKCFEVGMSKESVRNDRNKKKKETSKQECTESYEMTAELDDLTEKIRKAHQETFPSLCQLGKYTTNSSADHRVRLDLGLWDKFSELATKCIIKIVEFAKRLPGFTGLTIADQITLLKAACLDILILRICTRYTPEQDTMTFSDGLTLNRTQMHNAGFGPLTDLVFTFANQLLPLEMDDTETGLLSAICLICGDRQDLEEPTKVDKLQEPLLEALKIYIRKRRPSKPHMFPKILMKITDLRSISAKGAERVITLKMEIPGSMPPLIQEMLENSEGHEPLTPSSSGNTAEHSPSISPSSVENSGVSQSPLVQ", "experiment": "Competition with [3H]-ATRA binding, nuclear extracts of Sf21 cells expressing RARβ", "settings": "nuclear extracts of baculovirus-infected Sf21 cells, read-out: Binding affinity ED50, RARβ"}, "[3]": {"molecular_target": "T2, human RARγ (Homo sapiens, UniProt P13631)", "T2 construct": "made in house", "T2 sequence (P13631 1-454)": "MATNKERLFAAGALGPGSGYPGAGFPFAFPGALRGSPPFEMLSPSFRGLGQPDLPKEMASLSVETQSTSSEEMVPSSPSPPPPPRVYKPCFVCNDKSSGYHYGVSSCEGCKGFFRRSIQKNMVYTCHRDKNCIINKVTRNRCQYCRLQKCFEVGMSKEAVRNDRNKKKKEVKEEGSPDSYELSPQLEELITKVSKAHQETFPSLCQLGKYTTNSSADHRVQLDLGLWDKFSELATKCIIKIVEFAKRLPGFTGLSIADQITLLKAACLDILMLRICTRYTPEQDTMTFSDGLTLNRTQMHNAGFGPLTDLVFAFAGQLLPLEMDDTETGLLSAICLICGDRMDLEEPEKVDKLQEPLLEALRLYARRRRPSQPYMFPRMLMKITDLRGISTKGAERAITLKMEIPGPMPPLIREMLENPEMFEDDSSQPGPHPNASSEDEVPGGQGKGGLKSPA", "experiment": "Competition with [3H]-ATRA binding, nuclear extracts of Sf21 cells expressing RARγ", "settings": "nuclear extracts of baculovirus-infected Sf21 cells"}, "[4]": {"molecular_target": "T3, human RARα (Homo sapiens, UniProt P10276)", "T3 construct": "made in house", "T3 sequence (P10276 1-462)": "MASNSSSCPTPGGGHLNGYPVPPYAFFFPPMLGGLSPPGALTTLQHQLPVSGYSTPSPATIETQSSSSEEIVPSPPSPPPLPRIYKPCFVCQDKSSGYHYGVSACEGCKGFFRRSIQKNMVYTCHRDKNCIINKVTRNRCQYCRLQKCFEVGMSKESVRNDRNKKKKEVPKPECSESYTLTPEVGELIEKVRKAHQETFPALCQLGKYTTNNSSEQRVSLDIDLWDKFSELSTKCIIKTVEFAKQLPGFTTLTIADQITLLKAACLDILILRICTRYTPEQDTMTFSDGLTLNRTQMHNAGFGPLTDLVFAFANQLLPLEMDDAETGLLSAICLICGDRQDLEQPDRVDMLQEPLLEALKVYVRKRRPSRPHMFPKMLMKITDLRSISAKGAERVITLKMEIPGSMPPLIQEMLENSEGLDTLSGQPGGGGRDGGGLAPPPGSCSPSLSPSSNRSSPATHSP", "experiment": "Competition with [3H]-ATRA binding, nuclear extracts of Sf21 cells expressing RARα", "settings": "nuclear extracts of baculovirus-infected Sf21 cells, read-out: Binding affinity ED50, RARα"}, "[5]": {"test_system": "KG1 cells", "experiment": "Differentiation of KG1 cells (CD11b/CD14 flow cytometry)", "assay_type": "cell-based, human", "settings": "96 h", "method": "as §1, §2"}, "[6]": {"test_system": "CD34^+vehuHSC", "experiment": "Cell production and lifespan of CD34+ve huHSC-initiated cultures", "assay_type": "cell-based, human", "excerpt": "(§3) The cells used were CD34^+ve cells purified from the blood of normal human adult donors and post-mobilization of stem cells to the blood. Cells obtained and purified in this manner are used routinely by the National Blood Service Stem Cell Laboratory in Birmingham for bone marrow transplantation. Ethics approval for the use of adult human blood-mobilized stem cells (CD34^+vehuHSC) was from the West Midlands Research Ethics Committee. Informed consent was obtained by the regional National Blood Service Stem Cell Laboratory in Birmingham. CD34^+ve cells were purified to 99 % CD34^+ve, 97 % CD133^+ve, >99 % lineage^−ve (n = 15) using an anti-CD34 monoclonal antibody, immunomagnetic beads, and a CliniMACS magnetic separator. Purified cells were plated at 5 × 10^5 cells/ml in microtiter wells in 200 μl of either RPMI-1640 medium (R and D Systems, Abingdon, UK) or HPGM^TM hematopoietic growth medium (Lonza, UK) containing either 10 % FBS or 10 % human serum, antibiotics (100 U/ml penicillin and 100 μg/ml streptomycin) and stem cell factor (SCF), interleukin (IL)-3, and granulocyte-colony stimulating factor (G-CSF) (all from R and D Systems Abingdon, UK) as stated in the results. Cultures were fed every 2–3 days (with fresh compound), split into microtiter wells, and then expanded into 2 ml Costar wells to maintain a cell density of between 2.5 and 10 × 10^5 cells/ml. Cells were grown at 37 °C in 5 % CO2. Viable cells were enumerated by phase contrast microscopy (400× magnification).\nas §2"}, "[7]": {"test_system": "lineage^−ve/CD133^+ve/CD34^+vehuHSC", "experiment": "Ex vivo expansion of lineage-ve/CD133+ve/CD34+ve huHSC", "assay_type": "cell-based, human", "settings": "all 15 donors; control 8–10-fold", "excerpt": "as §3, with “Viable cells were enumerated by phase contrast microscopy (400× magnification).” left out\nThe expression of differentiation markers at the cell surface was determined by flow cytometry. Differentiation of NB-4 and KG1 cells was measured by staining using the monoclonal antibodies CD11b-FITC and CD14-PE and appropriately labeled isotype controls (all from ImmunoTools, Friesoythe, Germany). Differentiation of human CD34^+ve cells was measured by triple-color staining using various cocktails of phycoerythrin-, fluorescein isothyocyanate-, and PerCP-monoclonal antibodies (from Becton–Dickinson, San Jose, CA, USA). […] Cells were analyzed using a FACSCalibur, and data analysis was performed using the CellQuest Pro software (Becton–Dickinson, San Jose, CA, USA)."}}}
{"molecule": "C=C1/C(=C\\C=C2/CCC[C@]3(C)[C@@H]([C@H](C)CCCC(C)(C)O)CC[C@@H]23)C[C@@H](O)C[C@@H]1O", "note": "[1,25D, 1α,25-Dihydroxyvitamin D3]", "values": [{"measurement": "CD11b+ve/CD14+ve cells (monocyte differentiation)", "setting": "[1]; NB-4 cells, 10 nM, alone", "value": "~ 6%"}]}
{"molecule": "CC1(C)CCC(C)(C)c2c1cc(C(=O)Nc1cc(F)c(C(=O)O)c(F)c1)c(O)c2Cl", "note": "[AGN195183]", "values": [{"measurement": "IC50", "setting": "[2]", "value": "> 5000", "unit": "nM"}, {"measurement": "IC50", "setting": "[3]; read-out: Binding affinity ED50, RARγ", "value": "> 5000", "unit": "nM"}, {"measurement": "CD11b+ve/CD14+ve cells (monocyte differentiation)", "setting": "[1]; NB-4 cells, 100 nM combined with 10 nM 1,25D", "value": 40, "unit": "%"}, {"measurement": "CD11b+ve/CD14−ve cells (neutrophil differentiation)", "setting": "[1]; NB-4 cells, 100 nM, alone", "value": 40, "unit": "%"}, {"measurement": "IC50", "setting": "[4]", "value": 20.1, "unit": "nM"}, {"measurement": "CD11b+ve/CD14+ve cells (monocyte differentiation)", "setting": "[5]; KG1 cells, 100 nM combined with 10 nM 1,25D", "value": 18, "unit": "%"}]}
{"molecule": "CCOc1c(Br)cc(C(=O)Nc2ccc(C(=O)O)cc2)cc1C(=O)c1ccc(C)cc1", "note": "[AGN196996]", "values": [{"measurement": "IC50", "setting": "[2]", "value": 4036, "unit": "nM"}, {"measurement": "cells (largely myeloid) produced versus γ antagonist-treated and control cultures", "setting": "[6]; by day 20", "value": "around fourfold more cells"}, {"measurement": "prolonged lifespan of cultures", "setting": "[6]; human HSCs supplemented with stem cell factor ± interleukin 3, abstract", "value": "up to 55 days"}, {"measurement": "expansion of lineage−ve/CD133+ve/CD34+ve cells", "setting": "[7]", "value": "around 20 fold"}, {"measurement": "Binding affinity ED50, RARγ", "setting": "[3]", "value": ">10,000 nM"}, {"measurement": "effect on differentiation of NB-4 cells", "setting": "[1]; 100 nM with 10 nM 1,25D, compared with 1,25D alone", "value": "did not have an appreciable effect"}, {"measurement": "effect on differentiation of NB-4 cells", "setting": "[1]; 100 nM, used alone", "value": "no effect"}, {"measurement": "IC50", "setting": "[4]", "value": 3.9, "unit": "nM"}, {"measurement": "effect on differentiation of KG1 cells", "setting": "[5]; 100 nM together with 10 nM 1,25D", "value": "no effect"}, {"measurement": "effect on differentiation of KG1 cells", "setting": "[5]; 100 nM, used alone", "value": "no effect"}]}
{"molecule": "B1", "values": [{"measurement": "cells produced versus control cultures", "setting": "[6]; 30 ng/ml, by day 30", "value": "fourfold more cells"}, {"measurement": "time for which cultures were maintained", "setting": "[6]; 30 ng/ml, 10 % FBS, 100 ng/ml SCF, 5 ng/ml IL-3", "value": "≤ 55", "unit": "days"}]}
